The record followed here is patent publication US11161818B2, “Quinolone derivatives, preparation methods and application thereof” (Hangzhou Normal University, priority 2019, dated 2021).

Where a name gives a salt, the structure may show the parent alone. A value given as a limit tells only on which side of the number the result lay.

For test [1], the system named is S. aureus. Description: Bactericidal activity test, filter paper inhibition zone. It is filed as cell-based, Staphylococcus aureus. The settings on record: filter paper diameter 6 mm, 37° C., 24 hours; for S. aureus inhibition zone: sample concentration 10 mg/mL. As to the method:
(§1) In order to determine the practicability of the compounds synthesized in this patent, some of the compounds are selected as representatives, and the bactericidal activity is determined by conventional methods. The specific operation procedures are as follows:
(§2) In a super clean bench, the preserved strains are transferred to a slant tube, cultured in an incubator at 37° C. for 24 hours, and then taken out and preserved at low temperature for antibacterial experiments. The well-grown colonies are scraped and transferred into a liquid medium with the inoculation ring, shaken to give a uniform mixture, and cultured in the incubator at 37° C. for 24 hours. The culture medium is poured into plates, about 15 ml for each plate, which are placed horizontally, and after solidification, placed upside down into the incubator at 37° C.; after two days, it is observed whether there is colony growth. If not, it can be used for the next experiment, otherwise, the plate needs to be poured again. 0.5 ml of bacterial suspension is pipetted into the plate, which is left to stand still for about 5 minutes, and then spread evenly with a coating rod; two duplicate plates are set for each kind of bacteria. In the super clean bench, the plates are divided equally and parallel groups are set. Each piece of filter paper (6 mm in diameter) is a paste. The filter paper is picked up with tweezers, dipped into a sample, taken out, placed at a given position of the plate, and gently pressed to make the filter paper firmly adhered thereto. The plate is placed (upside down) in the incubator for culture; the temperature is set at 37° C.; and after 24 hours culture, the plate is observed and the results are recorded.

In test [2] the test system is E. coli. The description is as above. It counts as cell-based. The settings on record: filter paper diameter 6 mm, 37° C., 24 hours; for E. coli activity inhibition zone: sample concentration 10 mg/mL. As to the method: as §1, §2
The test system of test [3] is MRSA (methicillin-resistant Staphylococcus aureus). The description is as above. It is filed as cell-based. The settings on record: filter paper diameter 6 mm, 37° C., 24 hours; for MRSA inhibition zone: sample concentration 10 mg/mL. As to the method: as §1, §2
Test [4] has as its system B. subtilis. Described as above. The settings on record: filter paper diameter 6 mm, 37° C., 24 hours; for B. subtilis inhibition zone: sample concentration 10 mg/mL. It counts as cell-based, Bacillus subtilis. As to the method: as §1, §2
Test [5] deals with lung cancer cells (A549). Description: Anti-tumor activity test, MTT method. It is filed as cell-based. The settings on record: concentration 0.5 mg/ml (DMSO as solvent), 44 + 4 hours culture. As to the method:
(§3) For the anti-tumor activity test of these compounds, three kinds of common tumor cells are taken as research subjects: non-small cell lung cancer cells (HCC827), lung cancer cells (A549) and liver cancer cells (HepG2). Under the action of the new quinolone derivatives, the growth of the cells is observed, and the proliferation of tumor cells is measured by MTT method. The specific operation is as follows: the tumor cells are inoculated into 96-well culture plate in a particular amount of cells, with a cell density of 2×10^4 cells/ml; after overnight in the incubator with a concentration of 5% CO2 at 37° C., the screened samples are added (reference can be made to Table 1 for sample concentration; 10 μL/well of corresponding concentration of drugs are added to the dosing group, while 10 μL/well of PBS are added to the control group). After 44 hours of culture, 10 μL/well of MTT are added to continue the culture for 4 hours, which is dissolved with DMSO, shaken, and detected with a 570 nm enzyme-labeled instrument.

Test [6] relates to non-small cell lung cancer cells (HCC827). As to the kind of experiment: Anti-tumor activity test, MTT method. It counts as cell-based. The settings on record: concentration 0.5 mg/ml (DMSO as solvent), 44 + 4 hours culture. As to the method:
as §3
(In general: Formazan colour is commonly taken as a measure of viable cells.)

The subject of test [7] is liver cancer cells (HepG2). Description: Anti-tumor activity test, MTT method. The settings on record: concentration 0.5 mg/ml (DMSO as solvent), 44 + 4 hours culture. It counts as cell-based, human. As to the method:
as §3

Consider `CCOC(=O)c1cn(-c2ccc(Oc3ccc(F)cc3)cc2)c2cc(Cl)c(F)cc2c1=O` [Compound I-7, ethyl 7-chloro-6-fluoro-1-(4-(4-fluorophenoxy)phenyl)-4-oxy-1,4-dihydroquinoline-3-carboxylate], for which the “S. aureus inhibition zone” value in test [1] is given as 15 mm. For the same molecule, in test [2], the “E. coli activity inhibition zone” value turned out to be 17 mm. The MRSA inhibition zone in test [3] came out at 7 mm. The “B. subtilis inhibition zone” value in test [4] is 13 mm.

In the case of `CCOC(=O)c1cn(-c2ccc(Oc3ccc(C)c(C)c3)cc2)c2cc(Cl)c(F)cc2c1=O` [Compound I-17, ethyl 7-chloro-1-(4-(3,4-dimethylphenoxyl)phenyl)-6-fluoro-4-oxy-1,4-dihydroquinoline-3-carboxylate], the “S. aureus inhibition zone” value in test [1] stood at 20 mm. The “E. coli activity inhibition zone” value in test [2] was determined as 29 mm. In test [3], the MRSA inhibition zone was found to be 7 mm. In addition, the “B. subtilis inhibition zone” value in test [4] came to 11 mm.

`CCOC(=O)c1cn(-c2ccc(Oc3ccc(C)cc3)cc2)c2cc(Cl)c(F)cc2c1=O` [Compound I-8, ethyl 7-chloro-6-fluoro-1-(4-(4-toluoxy)phenyl)-4-oxy-1,4-dihydroquinoline-3-carboxylate]: the “S. aureus inhibition zone” value in test [1] was 13 mm. In addition, the “E. coli activity inhibition zone” value in test [2] was found to be 12 mm. Besides, the MRSA inhibition zone in test [3] was found to be 10 mm. Further, the “B. subtilis inhibition zone” value in test [4] was determined as 12 mm.

For the molecule `CCOC(=O)c1cn(-c2ccc(Oc3ccc(C(C)(C)C)cc3)cc2)c2cc(Cl)c(F)cc2c1=O` [Compound I-10, ethyl 7-chloro-6-fluoro-1-(4-(4-tert-butylphenoxy)phenyl)-4-oxy-1,4-dihydroquinoline-3-carboxylate], the “S. aureus inhibition zone” value in test [1] is on record as 20 mm. In addition, the “E. coli activity inhibition zone” value in test [2] amounted to 24 mm. The MRSA inhibition zone in test [3] is 14 mm. For the same molecule, in test [4], the “B. subtilis inhibition zone” value is recorded as 20 mm.

On to `CCOC(=O)c1cn(-c2ccc(Oc3ccc(Cl)c(Cl)c3)cc2)c2cc(Cl)c(F)cc2c1=O` [Compound I-15, ethyl 7-chloro-1-(4-(3,4-dichlorophenoxy)phenyl)-6-fluoro-4-oxy-1,4-dihydroquinoline-3-carboxylate], for which the “S. aureus inhibition zone” value in test [1] is given as 20 mm. The “E. coli activity inhibition zone” value in test [2] came to 21 mm. For the same molecule, the MRSA inhibition zone in test [3] is on record as 9 mm. The “B. subtilis inhibition zone” value in test [4] was 18 mm.

As for `COc1ccc(Oc2ccc(-n3cc(C(=O)O)c(=O)c4cc(F)c(Cl)cc43)cc2)cc1` [Compound I-28, 7-chloro-1-(4-(4-methoxyphenoxy)phenyl)-6-fluoro-4-oxy-1,4-dihydroquinoline-3-carboxylic acid], the “S. aureus inhibition zone” value in test [1] is listed as 29 mm. Further, the “E. coli activity inhibition zone” value in test [2] was 25 mm. The same molecule showed an MRSA inhibition zone in test [3] of 11 mm. In addition, the “B. subtilis inhibition zone” value in test [4] was 28 mm.

In the case of `CCOC(=O)c1cn(-c2ccc(Oc3ccc(OC(F)(F)F)cc3)cc2)c2cc(Cl)c(F)cc2c1=O` [Compound I-12, ethyl 7-chloro-6-fluoro-1-(4-(4-trifluoromethoxyphenoxy)phenyl)-4-oxy-1,4-dihydroquinoline-3-carboxylate], the IC50 (usually the concentration needed to halve the response being measured) in test [5] was > 10 µM; in test [6], > 10 µM; in test [7] it was 8.5 µM. The “S. aureus inhibition zone” value in test [1] is given as 24 mm. In addition, the “E. coli activity inhibition zone” value in test [2] was found to be 28 mm. For the same molecule, the MRSA inhibition zone in test [3] is given as 8 mm. In test [4], the “B. subtilis inhibition zone” value was 8 mm.

As for `CCOC(=O)c1cn(Cc2ccc(Oc3ccc(Cl)cc3)cc2)c2cc(Cl)c(F)cc2c1=O` [Compound I-20, ethyl 7-chloro-1-(4-(4-chlorophenoxy)benzyl)-6-fluoro-4-oxy-1,4-dihydroquinoline-3-carboxylate], in test [1], the “S. aureus inhibition zone” value came out at 21 mm. In test [2], the “E. coli activity inhibition zone” value came to 24 mm. In addition, the MRSA inhibition zone in test [3] came out at 10 mm. Moreover, the “B. subtilis inhibition zone” value in test [4] stood at 12 mm.

For `CCOC(=O)c1cn(-c2ccc(Oc3ccc(C(F)(F)F)cc3)cc2)c2cc(Cl)c(F)cc2c1=O` [Compound I-14, ethyl 7-chloro-6-fluoro-1-(4-(4-trifluoromethylphenoxy)phenyl)-4-oxy-1,4-dihydroquinoline-3-carboxylate], in test [1], the “S. aureus inhibition zone” value is listed as 20 mm. Further, the “E. coli activity inhibition zone” value in test [2] is on record as 27 mm. Moreover, in test [3], the MRSA inhibition zone is given as 12 mm. Also, the “B. subtilis inhibition zone” value in test [4] amounted to 15 mm.

On to `CC(=O)O[C@H]1C(=O)[C@@]2(C)[C@H]([C@H](OC(=O)c3ccccc3)[C@]3(O)C[C@H](OC(=O)[C@H](O)[C@@H](NC(=O)c4ccccc4)c4ccccc4)C(C)=C1C3(C)C)[C@]1(OC(C)=O)CO[C@@H]1C[C@@H]2O` [Paclitaxel, reference compound], for which the values for the IC50 in test [5] (Homo sapiens), in test [6] (Homo sapiens) and in test [7] (Homo sapiens) were 3.5 µM, 2.5 µM and 1.5 µM, respectively.

Turning to `CCOC(=O)c1cn(-c2ccc(Oc3ccccc3)cc2)c2cc(Cl)c(F)cc2c1=O` [Compound I-4, ethyl 7-chloro-6-fluoro-4-oxy-1-(4-phenoxyphenyl)-1,4-dihydroquinoline-3-carboxylate], the “S. aureus inhibition zone” value in test [1] is listed as 19 mm. Moreover, the “E. coli activity inhibition zone” value in test [2] is on record as 27 mm. Besides, the MRSA inhibition zone in test [3] is listed as 9 mm. For the same molecule, the “B. subtilis inhibition zone” value in test [4] is recorded as 23 mm.

For `CCOC(=O)c1cn(-c2ccc(Oc3ccc(OC)cc3)cc2)c2cc(Cl)c(F)cc2c1=O` [Compound I-11, ethyl 7-chloro-6-fluoro-1-(4-(4-methoxyphenoxy)phenyl)-4-oxy-1,4-dihydroquinoline-3-carboxylate], the “S. aureus inhibition zone” value in test [1] is recorded as 11 mm. Further, the “E. coli activity inhibition zone” value in test [2] amounted to 22 mm. In test [3], this molecule showed an MRSA inhibition zone of 7 mm. The “B. subtilis inhibition zone” value in test [4] worked out at 13 mm.

In the case of `CCOC(=O)c1cn(Cc2ccc(Oc3ccccc3C)cc2)c2cc(Cl)c(F)cc2c1=O` [Compound I-22, ethyl 7-chloro-1-(4-(2-methylphenoxy)benzyl)-6-fluoro-4-oxy-1,4-dihydroquinoline-3-carboxylate], in test [1], the “S. aureus inhibition zone” value was 23 mm. In addition, the “E. coli activity inhibition zone” value in test [2] worked out at 30 mm. For the same molecule, in test [3], the MRSA inhibition zone is on record as 14 mm. Moreover, in test [4], the “B. subtilis inhibition zone” value turned out to be 18 mm.

With `C[C@H]1COc2c(N3CCN(C)CC3)c(F)cc3c(=O)c(C(=O)O)cn1c23` [Control group, levofloxacin hydrochloride, reference compound], the zone of inhibition – broadly, the size of the clear area around the sample on an inoculated plate – at 5000 µg/mL in test [1] (Staphylococcus aureus, control concentration 5 mg/mL) turned out to be 26 mm; in test [2] (Escherichia coli, control concentration 5 mg/mL) it was 25 mm; in test [3] (Staphylococcus aureus, MRSA, control concentration 5 mg/mL), 12 mm; in test [4] (Bacillus subtilis, control concentration 5 mg/mL), 22 mm.

Consider `CCOC(=O)c1cn(-c2ccc(Oc3ccc(Cl)cc3)cc2)c2cc(Cl)c(F)cc2c1=O` [Compound I-3, ethyl 7-chloro-1-(4-(4-chlorophenoxy)phenyl)-6-fluoro-4-oxy-1,4-dihydroquinoline-3-carboxylate], for which the IC50 in test [5] is > 10 µM; in test [6], 4.5 µM; in test [7], 7.5 µM. The “S. aureus inhibition zone” value in test [1] is 20 mm. The “E. coli activity inhibition zone” value in test [2] came out at 24 mm. For the same molecule, the MRSA inhibition zone in test [3] amounted to 8 mm. In addition, the “B. subtilis inhibition zone” value in test [4] was found to be 18 mm.

Regarding `O=C(O)c1cn(-c2ccc(Oc3ccc(Cl)cc3)cc2)c2cc(Cl)c(F)cc2c1=O` [Compound I-26, 7-chloro-1-(4-(4-chlorophenoxy)phenyl)-6-fluoro-4-oxy-1,4-dihydroquinoline-3-carboxylic acid], the results for the IC50 in test [5], in test [6] and in test [7] were > 10 µM, 5 µM and 5 µM, respectively. Moreover, the “S. aureus inhibition zone” value in test [1] is listed as 29 mm. Moreover, the “E. coli activity inhibition zone” value in test [2] was 29 mm. Further, in test [3], the MRSA inhibition zone was 15 mm. In test [4], the “B. subtilis inhibition zone” value amounted to 24 mm.
